According to patent US5464834A, “N-substituted N'-heterobicyclic piperazines having pharmaceutical activity” (Adir et Compagnie, priority 1992, dated 1995):

Columns and labels:
5HT1A receptors [1] = target: T1, 5HT1A receptors (Rattus norvegicus, UniProt P19327); experiment: In vitro binding test, 5HT1A receptors ([3H]-8-OH-DPAT, hippocampus membranes); parameters: The hippocampus of the brains of decapitated rats was immediately frozen; from tissue; host or cells: hippocampus membranes of male Wistar rats; species or system rat (male Wistar); details: rat hippocampus; [3H]-8-OH-DPAT 0.4 nM; 30 min at 25° C; read-out: AFFINITY (pKi) (converted)
T1 sequence (P19327 1-422): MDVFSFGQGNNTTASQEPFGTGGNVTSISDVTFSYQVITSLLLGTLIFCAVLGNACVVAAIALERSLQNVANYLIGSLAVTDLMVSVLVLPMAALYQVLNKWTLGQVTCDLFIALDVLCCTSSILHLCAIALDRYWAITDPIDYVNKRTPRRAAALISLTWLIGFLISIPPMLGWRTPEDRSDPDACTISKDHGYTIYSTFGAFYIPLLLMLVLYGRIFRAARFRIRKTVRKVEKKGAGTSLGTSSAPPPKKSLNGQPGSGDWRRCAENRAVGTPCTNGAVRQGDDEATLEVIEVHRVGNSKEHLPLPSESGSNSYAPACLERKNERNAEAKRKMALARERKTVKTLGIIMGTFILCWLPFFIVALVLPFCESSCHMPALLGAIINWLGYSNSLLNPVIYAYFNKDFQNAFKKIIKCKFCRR
Description: (§1) The tests were carried out using male Wistar rats weighing 200 to 220 g having free access to their food and to their drinking water in standard cages.
The hippocampus of the brains of decapitated rats was immediately frozen on solid carbon dioxide and then kept at -80° C. until preparation of the membranes. The tissue was homogenised at 4° C. in the appropriate buffer using a Polytron (Brinkman Instruments, Lucerne, Switzerland) and centrifuged at 20,000 revs/min.
Incubation was carried out for 30 minutes at 25° C. Non-specific binding was established by […] of 5HT. The tests were terminated by rapid filtration using a Brandel harvester through glass fibre filters pretreated with 0.1% polyethylene imine.
The IC50 values were determined in accordance with process 8 of Tallarida R. J. and Murray R. B., Manual of Pharmacological calculations with computer programs, Springer Verlag, New York, (1987).
The pKi was calculated in accordance with the following formula: [formula] wherein [L] is the concentration of the hot ligand (^[3] H-8-OH-DPAT, 0.4 nM) and Kd is the apparent dissociation constant determined from the saturation experiments.
The substances studied were dissolved in the incubation buffer.
Binding of 5HT1A receptors

5HT1A receptors [2] = target: T1, 5HT1A receptors; experiment: Spontaneous tail flick (STF) test, agonist (alone) and antagonist (vs 8-OH-DPAT); format: in vivo, rat (male Wistar); parameters: from tissue; host or cells: whole living male Wistar rats (endogenous receptor)
Description: as §1
The animals are isolated individually for the tests for hypothermia, corticosterone secretion and flat body posture, or combined in groups of three for the tailflick test.
The compounds to be studied were administered by the subcutaneous route (s.c.) 60 minutes before the beginning of the test, that is to say 30 minutes before the solvent (agonist responses) or the 8-OH-DPAT (antagonist responses).
In all of the tests the solvent is used in parallel as a control. The animals were left to rest in their cage during the period between the injections and the evaluation. For the agonist studies, the solvent was administered at 1 ml/kg s.c. 30 minutes before the beginning of the test. For the antagonist studies, doses of 8-OH-DPAT that induce sub-maximal responses were chosen, that is doses of 0.63, 0.16, 0.16 and 0.16 mg/kg s.c. for, respectively, the tail flick test, flat body posture test, corticosterone secretion test and hypothermia test.
The tail flicks were determined on the animals in horizontal opaque plastics cylinders with the tail of the animals hanging freely on the edge of the laboratory work bench. After allowing 5 minutes for adaptation, the number of movements made in 5 minutes was recorded. An STF is defined as being an elevation of the tail to a level higher than that of the axis of the body [Millan M. J. et al., J. Pharmacol. Exp. Ther., 256, 973-982 (1990)].
In general, after variance analysis, the results are subjected to the Dunett test. The results are taken as significant if p <0.05.
The doses of the compounds tested are all expressed in base terms. Unless specified otherwise, all of the compounds were dissolved in sterile water (to which if necessary a few drops of lactic acid were added) and administered at a volume of 1 ml/kg s.c.

Ki (5HT1A receptors [1]): 1.74 nM
STFs MED alone (5HT1A receptors [2]; agonist test, compound alone s.c., minimum effective dose vs control): > 10.0 mg/kg
ED50 (5HT1A receptors [2]; rat, sc, antagonist test, s.c., vs 8-OH-DPAT 0.63 mg/kg s.c., read-out: STFs ID50 (95% CL) + DPAT): 0.12 mg/kg
% MPA (% maximum possible antagonism), STFs (5HT1A receptors [2]; vs 8-OH-DPAT 0.63 mg/kg s.c.): 92%
Compound: c1cc2c(c(N3CCN(CCCc4ccsc4)CC3)c1)OCCO2 [Example 1, 4-(Benzodioxan-5-yl)-1-[3-(thiophen-3-yl)propyl]piperazine]
